Key:
Test in all cases: cells
Assay type in all cases: functional, cell-based
Conditions in all cases: Homo sapiens
K562 = system: K562
Description: In vitro cytotoxic effect on K562 cancer cell line

CCRF-CEM = system: CCRF-CEM
Description: In vitro cytotoxic effect on CEM cancer cell line

MCF7 = system: MCF7
Description: In vitro cytotoxic effect on MCF-7 cancer cell line

G-361 = system: G-361
Description: In vitro cytotoxic effect on G361 cancer cell line

HOS = system: HOS
Description: In vitro cytotoxic effect on HOS cancer cell line

Row | SMILES | IC50 (K562) [µM] | IC50 (CCRF-CEM) [µM] | IC50 (MCF7) [µM] | IC50 (G-361) [µM] | IC50 (HOS) [µM]
1 | CC(C)n1cnc2c(NCc3ccc(O)cc3)nc(NCCCO)nc21 | 57 | 18.2 | 12.7 | 23 | 
2 | CC(C)n1cnc2c(NCc3cccc(O)c3)nc(NCCCO)nc21 | 56 | 17.6 | 14.7 | 26 | 26
3 | CCC(CO)Nc1nc(NCc2cccc(O)c2)c2ncn(C(C)C)c2n1 (stereo unspecified) | 26 | 9.9 | 13.7 | 19.4 | 11
4 | CCC(CO)Nc1nc(NCc2ccc(O)cc2)c2ncn(C(C)C)c2n1 (stereo unspecified) | 24 | 11 | 7.8 | 11.1 | 13
5 | CC(C)n1cnc2c(NCc3ccccc3)nc(NCCCO)nc21 [BOHEMINE] | 113 | 27 | 28 | 45 | 58
6 | Cn1cnc2c(NCc3ccccc3)nc(NCCO)nc21 [OLOMOUCINE] | > 167 | 62 |  | 160 | 149
7 | CC(C)[C@H](CO)Nc1nc(Nc2cccc(Cl)c2)c2ncn(C(C)C)c2n1 [PURVALANOLA] | 9 | 7.4 | 10.7 | 24 | 22

The next lines start with the values.

Row | IC50 (K562) [µM] | IC50 (CCRF-CEM) [µM] | IC50 (MCF7) [µM] | IC50 (G-361) [µM] | IC50 (HOS) [µM] | SMILES
8 | 14.8 | 5.3 | 9.3 | 11.1 | 12 | CC(C)C(CO)Nc1nc(NCc2ccc(O)cc2)c2ncn(C(C)C)c2n1 (stereo unspecified)
9 | 24 | 10.7 | 12.4 | 13.3 | 17.2 | CC(C)n1cnc2c(NCc3ccccc3O)nc(NCCCO)nc21
10 | 10.9 | 4.4 | 5.7 | 7.8 | 8.3 | CC(C)C(CO)Nc1nc(NCc2ccccc2O)c2ncn(C(C)C)c2n1 (stereo unspecified)
11 | 16.1 | 6.7 | 14.8 |  |  | CC(C)C(CO)Nc1nc(NCc2cccc(O)c2)c2ncn(C(C)C)c2n1 (stereo unspecified)
12 | 11.1 | 3 | 5.3 | 6.3 | 6.3 | CC[C@H](CO)Nc1nc(NCc2ccccc2O)c2ncn(C(C)C)c2n1 [OLOMOUCINE II]
